Laboratory results published in patent US20130172294A1, “Treatment with VB-201” (Vascular Biogenics Ltd., priority 2010, published 2013).

Assay: Effect of food and capsule coating on single-dose pharmacokinetics (Example 3)
Assay type: in vivo, human
Description: Determination of VB-201 concentrations in plasma was performed using an HPLC-MS/MS (high performance liquid chromatography with tandem mass spectrometric detection) assay. Calibration was for a range of from 5 to 500 ng/ml for low doses and from 50 to 5000 ng/ml for high doses. Pharmacokinetic parameters were estimated by using a non-compartmental method, except for the AUC (area under curve), which was determined using a (log-) trapezoidal rule as the area above the previous trough level. All calculations were made using PKWizard (developed by Russell Barbare and Dr. […] was validated against WinNonlin (Pharsight Corp.), which is an FDA-recognized validated program. Pharmacokinetic parameters were calculated by the program according to standard methods used in the art. Calculation of the pharmacokinetic characteristics was based on the actual blood sampling time (in hours), with predose times set to zero. Concentrations below the LLOQ (lower limit of quantification; 4.974 ng/ml) were assumed to be zero. The effects of food on the pharmacokinetics of enteric coated and non-coated VB-201 capsules were investigated in a double-blind, placebo-controlled study in healthy subjects. Cohorts of six subjects each received a single dose of 10 mg, 2×10 mg or 20 mg VB-201 in the morning. […] Subjects were randomly assigned to receive the drug when fed (i.e., following completion of a standardized high fat meal) or when fasting (i.e., fasting for at least 10 hours). […] Subjects then underwent an additional 8 day washout period, after which subjects underwent a second administration. Subjects who received the first administration when fasting, received the second administration when fed, and subjects who received the first administration when fed, received the second administration when fasting. Following the second administration, blood samples were taken at the same times post-dose as previously. Concentration-time curves were constructed for time periods of up to 144 hours. Pharmacokinetic parameters were calculated based on data for the first 24 hours and for the whole 144 hours. […] Nevertheless, parameters were also calculated from data covering the first 24 hours in order to compare parameters with previous studies. Statistical comparisons of doses, coated vs. non-coated capsules, feeding vs. fasting and coating-feeding interactions were performed using a mixed model ANOVA in an SAS 8.02 software package (SAS Institute, Cary, N.C.) using PROC MIXED

AUC (0-infinity, from 24) (1 × 10 mg coated fasting): 4801 ng·h/mL
AUC (0-infinity, from 144) (1 × 10 mg coated fasting): 8017 ng·h/mL
AUC(0-24) (1 × 10 mg coated fasting): 2602 ng·h/mL
AUC(0-144) (1 × 10 mg coated fasting): 7397 ng·h/mL
AUMC (0-24) (1 × 10 mg coated fasting): 33556 hours^2*ng/ml
AUMC (0-infinity) (1 × 10 mg coated fasting): 467760 hours^2*ng/ml
Cl/F (0-24) (1 × 10 mg coated fasting): 3.293 L/h
Cl/F (from 144) (1 × 10 mg coated fasting): 1.580 L/h
Cmax (1 × 10 mg coated fasting): 171.4 ng/mL
Ke (from 24) (1 × 10 mg coated fasting): 0.0438 h⁻¹
Ke (from 144) (1 × 10 mg coated fasting): 0.0201 h⁻¹
MTT (0-24) (1 × 10 mg coated fasting): 12.8 h
MTT (from 144) (1 × 10 mg coated fasting): 60.7 h
T1/2 (from 24) (1 × 10 mg coated fasting): 17.8 h
T1/2 (from 144) (1 × 10 mg coated fasting): 37.6 h
Tmax (1 × 10 mg coated fasting): 9.33 h
AUC (0-infinity, from 24) (1 × 10 mg coated fed): 5898 ng·h/mL
AUC (0-infinity, from 144) (1 × 10 mg coated fed): 9751 ng·h/mL
AUC(0-24) (1 × 10 mg coated fed): 2202 ng·h/mL
AUC(0-144) (1 × 10 mg coated fed): 8583 ng·h/mL
AUMC (0-24) (1 × 10 mg coated fed): 32798 hours^2*ng/ml
AUMC (0-infinity) (1 × 10 mg coated fed): 699311 hours^2*ng/ml
Cl/F (0-24) (1 × 10 mg coated fed): 1.883 L/h
Cl/F (from 144) (1 × 10 mg coated fed): 1.091 L/h
Cmax (1 × 10 mg coated fed): 186.4 ng/mL
Ke (from 24) (1 × 10 mg coated fed): 0.0352 h⁻¹
Ke (from 144) (1 × 10 mg coated fed): 0.0166 h⁻¹
MTT (0-24) (1 × 10 mg coated fed): 15.1 h
MTT (from 144) (1 × 10 mg coated fed): 70.7 h
T1/2 (from 24) (1 × 10 mg coated fed): 23.4 h
T1/2 (from 144) (1 × 10 mg coated fed): 45.0 h
Tmax (1 × 10 mg coated fed): 13.67 h
AUC (0-infinity, from 24) (1 × 10 mg non-coated fasting): 9375 ng·h/mL
AUC (0-infinity, from 144) (1 × 10 mg non-coated fasting): 15995 ng·h/mL
AUC(0-24) (1 × 10 mg non-coated fasting): 5759 ng·h/mL
AUC(0-144) (1 × 10 mg non-coated fasting): 14544 ng·h/mL
AUMC (0-24) (1 × 10 mg non-coated fasting): 67186 hours^2*ng/ml
AUMC (0-infinity) (1 × 10 mg non-coated fasting): 924243 hours^2*ng/ml
Cl/F (0-24) (1 × 10 mg non-coated fasting): 1.184 L/h
Cl/F (from 144) (1 × 10 mg non-coated fasting): 0.695 L/h
Cmax (1 × 10 mg non-coated fasting): 364.5 ng/mL
Ke (from 24) (1 × 10 mg non-coated fasting): 0.0575 h⁻¹
Ke (from 144) (1 × 10 mg non-coated fasting): 0.0190 h⁻¹
MTT (0-24) (1 × 10 mg non-coated fasting): 11.7 h
MTT (from 144) (1 × 10 mg non-coated fasting): 54.2 h
T1/2 (from 24) (1 × 10 mg non-coated fasting): 13.6 h
T1/2 (from 144) (1 × 10 mg non-coated fasting): 39.7 h
Tmax (1 × 10 mg non-coated fasting): 7.67 h
AUC (0-infinity, from 24) (1 × 10 mg non-coated fed): 7019 ng·h/mL
AUC (0-infinity, from 144) (1 × 10 mg non-coated fed): 16062 ng·h/mL
AUC(0-24) (1 × 10 mg non-coated fed): 4855 ng·h/mL
AUC(0-144) (1 × 10 mg non-coated fed): 13717 ng·h/mL
AUMC (0-24) (1 × 10 mg non-coated fed): 60611 hours^2*ng/ml
AUMC (0-infinity) (1 × 10 mg non-coated fed): 1254665 hours^2*ng/ml
Cl/F (0-24) (1 × 10 mg non-coated fed): 1.552 L/h
Cl/F (from 144) (1 × 10 mg non-coated fed): 0.702 L/h
Cmax (1 × 10 mg non-coated fed): 343.3 ng/mL
Ke (from 24) (1 × 10 mg non-coated fed): 0.0670 h⁻¹
Ke (from 144) (1 × 10 mg non-coated fed): 0.0180 h⁻¹
MTT (0-24) (1 × 10 mg non-coated fed): 12.5 h
MTT (from 144) (1 × 10 mg non-coated fed): 70.3 h
T1/2 (from 24) (1 × 10 mg non-coated fed): 11.2 h
T1/2 (from 144) (1 × 10 mg non-coated fed): 47.7 h
Tmax (1 × 10 mg non-coated fed): 10.17 h
AUC (0-infinity, from 24) (1 × 20 mg coated fasting): 9794 ng·h/mL
AUC (0-infinity, from 144) (1 × 20 mg coated fasting): 15637 ng·h/mL
AUC(0-24) (1 × 20 mg coated fasting): 5362 ng·h/mL
AUC(0-144) (1 × 20 mg coated fasting): 14579 ng·h/mL
AUMC (0-24) (1 × 20 mg coated fasting): 68472 hours^2*ng/ml
AUMC (0-infinity) (1 × 20 mg coated fasting): 849853 hours^2*ng/ml
Cl/F (0-24) (1 × 20 mg coated fasting): 3.188 L/h
Cl/F (from 144) (1 × 20 mg coated fasting): 2.387 L/h
Cmax (1 × 20 mg coated fasting): 366.3 ng/mL
Ke (from 24) (1 × 20 mg coated fasting): 0.0385 h⁻¹
Ke (from 144) (1 × 20 mg coated fasting): 0.0203 h⁻¹
MTT (0-24) (1 × 20 mg coated fasting): 12.8 h
MTT (from 144) (1 × 20 mg coated fasting): 53.8 h
T1/2 (from 24) (1 × 20 mg coated fasting): 19.9 h
T1/2 (from 144) (1 × 20 mg coated fasting): 35.6 h
Tmax (1 × 20 mg coated fasting): 8.17 h
AUC (0-infinity, from 24) (1 × 20 mg coated fed): 20054 ng·h/mL
AUC (0-infinity, from 144) (1 × 20 mg coated fed): 16687 ng·h/mL
AUC(0-24) (1 × 20 mg coated fed): 4655 ng·h/mL
AUC(0-144) (1 × 20 mg coated fed): 14968 ng·h/mL
AUMC (0-24) (1 × 20 mg coated fed): 66330 hours^2*ng/ml
AUMC (0-infinity) (1 × 20 mg coated fed): 1070977 hours^2*ng/ml
Cl/F (0-24) (1 × 20 mg coated fed): 1.400 L/h
Cl/F (from 144) (1 × 20 mg coated fed): 1.583 L/h
Cmax (1 × 20 mg coated fed): 306.6 ng/mL
Ke (from 24) (1 × 20 mg coated fed): 0.0230 h⁻¹
Ke (from 144) (1 × 20 mg coated fed): 0.0179 h⁻¹
MTT (0-24) (1 × 20 mg coated fed): 14.9 h
MTT (from 144) (1 × 20 mg coated fed): 62.9 h
T1/2 (from 24) (1 × 20 mg coated fed): 53.2 h
T1/2 (from 144) (1 × 20 mg coated fed): 39.6 h
Tmax (1 × 20 mg coated fed): 11.67 h
SMILES: CCCCCCCCCCCCCCCCOCC(COP(=O)([O-])OCC[N+](C)(C)C)OCCCCC(=O)O (stereo not drawn) [VB-201, 1-hexadecyl-2-(4′-carboxybutyl)-glycerol-3-phosphocholine]
